The values that follow come from patent publication US6545046B2, “Method for enhanced delivery of oxybutynin and compositions thereof” (Theramax Inc., priority 2000, dated 2003).

Data set [1] in a line: In vivo nasal, oral and intravenous delivery of oxybutynin in rats; plasma levels by HPLC. The note with it: rat; for bioavailability: read-out: Bioavailability relative to intravenous administration (100%). The method, then: The nasal absorption of oxybutynin was studied using an in vivo technique described previously (1). Male Sprague-Dawley rats (body weight 250±25 gm) were used in these studies. Animals were fasted overnight prior to experimentation. Surgical procedures were performed under equithesin anesthesia (3 ml/kg, i.p.). An incision was made in the neck, and the trachea cannulated with polyethylene tubing (PE-260). A closed end tube was inserted through the esophagus to the posterior part of the nasal cavity to prevent drug from entering the esophagus. The nasopalatine passage was then closed with an adhesive agent to prevent drainage of the drug from the nasal cavity to the mouth.
Blood samples were collected from a cannula inserted into the femoral artery. For intravenous drug administration, the jugular vein was cannulated.
Solutions of oxybutynin hydrochloride (5 mg/kg/100 μl) were prepared in normal saline and administered through the right nostril using a microsyringe. For oral administration, rats received an aqueous solution of oxybutynin hydrochloride (5 mg/kg) administered by gavage tube. For intravenous (i.v.) administration, the same dose of oxybutynin was injected into the jugular vein (1 ml/kg body weight). Blood samples after oxybutynin administration were collected before and at […] after drug administration, centrifuged, and serum removed and stored (−70° C.) until analysis.
Differences in the plasma oxybutynin or N-desethyloxybutynin concentrations between i.v., oral, and nasal delivery routes were compared using the Student's t test.
Analysis of oxybutynin and its metabolites N-desethyloxybutynin were performed using HPLC as described by Buyse et al. (2). Extraction of standards for calibration curve and plasma samples were performed as described previously by Hughes et al. (3).
Oxybutynin and its metabolite (N-desethyloxybutynin) were analyzed using a reverse-phase column (25 cm×[…] I.D.) and eluted with mobile phase consisting of 50% acetonitrile in […] potassium phosphate buffer, pH 6.3. The mixture was filtered and degassed prior to use. The flow rate was 0.7 ml/min, and the effluent was monitored with a dual UV detector system at 210 nm.
All determinations were performed by calculating the area ratios of each compound to the internal standard. Unknown amounts were determined from calibration curves run with each day's unknown analysis.

Test in data set [2]: as above
The settings on record: male, Sprague-Dawley, rat, mean ± SEM, read-out: AUC0-2 h.

For data set [3] the following is noted: oral administration (Douchamps et al.); cited from earlier work.
For data set [4] the following is noted: cited from earlier work.

The structures appear in SMILES notation. Like-named read-outs stand apart in the source and are kept apart here.

For `CCNCC#CCOC(=O)C(O)(c1ccccc1)C1CCCCC1` (stereo not drawn) [N-desethyloxybutynin], in data set [1] (intranasal oxybutynin 5 mg/kg), the tmax turned out to be 96 min. Also, the “Ratio N-desethyloxybutynin/Oxybutynin” value in data set [1] (intranasal oxybutynin 5 mg/kg, mean ± SEM, 4 rats) is listed as around 0.55. Moreover, in data set [1] (oral oxybutynin 5 mg/kg), the “Plasma concentration of N-desethyloxybutynin relative to parent compound oxybutynin” value is recorded as “approximately 12 fold” and the tmax was 66 min.

`CCN(CC)CC#CCOC(=O)C(O)(c1ccccc1)C1CCCCC1` (stereo not drawn) [oxybutynin, Benzeneacetic acid, a-cyclohexyl-a-hydroxy-4-(diethylamino)-2-butynyl ester]: the bioavailability is 90% in data set [1] (male, Sprague-Dawley, plasma, other: intranasal, intranasal 5 mg/kg) and around 9% in data set [1] (male, Sprague-Dawley, plasma, oral 5 mg/kg). The tmax in data set [1] (male, Sprague-Dawley, plasma, inhaled or intranasal, 5 mg/kg, intranasal oxybutynin 5 mg/kg, read-out: tmax (converted)) is 10 min; in data set [1] (male, Sprague-Dawley, plasma, po, 5 mg/kg, oral oxybutynin 5 mg/kg (solution in water), read-out: tmax (converted)), 30 to 40 min; in data set [1] (oral oxybutynin 5 mg/kg (solution in water)), 40 min. The “Increase in bioavailability after intranasal compared to oral administration” value in data set [1] (5 mg/kg) is around 10 fold. Also, the AUC(0-t) was determined as 1770 ± 190 ng·h/mL in data set [2] (inhaled or intranasal, intranasal oxybutynin 5 mg/kg) and 180 ± 53 ng·h/mL in data set [2] (oral oxybutynin 5 mg/kg). Besides, in data set [3], the Systemic bioavailability is reported as below 6%. Further, the Patient withdrawal entry in data set [4] (intravesical oxybutynin therapy, several studies) is “up to 65%”. Besides, the “Patients with adverse reactions requiring discontinuance of therapy” value in data set [4] (oral 5 mg 3 times daily, clinical studies) was “about 20%”.
